For one test, the target named is human PDE1B (Homo sapiens (Human), UniProt Q01064). Nature of the test: PDE1B inhibitory assay (IMAP TR-FRET). The following applies: PDE1B pIC50, negative log of half-maximal molar inhibitory concentration; 200 nM FAM-cAMP, Calmodulin, CaCl2.
Experimental: PDE1B inhibition was determined by an IMAP TR-FRET assay.
After a brief centrifugation, the plates were incubated for 30 minutes at room temperature. The assay was terminated by adding 5 μL IMAP binding reagent/Tb complex (Molecular Devices, Sunnyvale, Calif.) to each well.
Plates were incubated 1 hour at room temperature and read on a Viewlux multimode plate reader (Perkin Elmer). The instrument was set to excite using the DUG11 filter and measure using 490/10 nm and 520/10 nm filters. Ratios of acceptor and donor were then calculated.
For IC50 calculations, the values of % efficacy versus a series of compound concentrations were then plotted using non-linear regression analysis of sigmoidal dose-response curves generated with the equation Y=B+(T−B)/1+10((Log EC50−X)×Hill Slope), where Y=percent activity, B=minimum percent efficacy, T=maximum percent efficacy, X=logarithm of compound and Hill Slope=slope factor or Hill coefficient. The IC50 value was determined by the concentration causing a half-maximal percent efficacy.
As to `COc1ccc(Cn2c(=O)n3ncnc3c3c4c(sc32)CN(Cc2ccc3c(c2)OC(F)(F)O3)CC4)cc1` [Example 114], the IC50 is 100 to 1000 nM. On to `COc1ccc(Cn2c(=O)n3ncnc3c3c4c(sc32)CN(C2CS(=O)(=O)C2)CC4)cc1` [Example 124], for which the IC50 lay in the range of 100 to 1000 nM. The same measure, in the same setting: the result for `COc1ccc(Cn2c(=O)n3ncnc3c3c4c(sc32)CN(C(C)C(F)F)CC4)cc1` (stereo not drawn) [Example 151] reads 100 to 1000 nM; that for `COc1ccc(Cn2c(=O)n3ncnc3c3c4c(sc32)N(Cc2ccc(Cl)cc2)CCC4)cc1` [Example 152], 100 to 1000 nM.

Turning to `COc1ccc(Cn2c(=O)n3ncnc3c3c4c(sc32)N(Cc2ccc(Cl)cc2)CCC4)cc1OC` [Example 153], the IC50 was 1000 to 10000 nM. For the compound `COc1ccc(Cn2c(=O)n3ncnc3c3c4c(sc32)N(Cc2cccc(Cl)c2)CCC4)cc1OC` [Example 155], the IC50 lay within 1000 to 10000 nM. Consider `COc1ccc(Cn2c(=O)n3ncnc3c3c4c(sc32)CN(C(=O)C2CCN(C)C2)CC4)cc1` (stereo not drawn) [Example 163], for which the IC50 lay in the range of 100 to 1000 nM. The same measure, in the same setting: the value for `COc1ccc(Cn2c(=O)n3ncnc3c3c4c(sc32)N(C(=O)c2ccccc2)CCC4)cc1OC` [Example 176] was 1000 to 10000 nM; that for `COc1ccc(Cn2c(=O)n3ncnc3c3c4c(sc32)CN(CC2CNCCO2)CC4)cc1` (stereo not drawn) [Example 180, 6-(4-Methoxybenzyl)-9-(morpholin-2-ylmethyl)-8,9,10,11-tetrahydropyrido[4′,3′:4,5]thieno[3,2-e][1,2,4]triazolo[1,5-c]pyrimidin-5(6H)-one] was 100 to 1000 nM; that for `COc1ccc(Cn2c(=O)n3ncnc3c3c4c(sc32)CN(C(=O)C2CCNC2)CC4)cc1` (stereo not drawn) [Example 181] was 100 to 1000 nM.

With `COc1ccc(Cn2c(=O)n3ncnc3c3c4c(sc32)CN(CC2CCNCC2)CC4)cc1` [Example 182], the IC50 was in the range of 100 to 1000 nM.

`COc1ccc(Cn2c(=O)n3nccc3c3cc(CN4CCOCC4)sc32)cc1` [Example 183, 4-(4-Methoxybenzyl)-2-(morpholinomethyl)pyrazolo[1,5-c]thieno[3,2-e]pyrimidin-5(4H)-one] gave an IC50 of 100 to 1000 nM. The same measure, in the same setting: the value for `COc1ccc(Cn2c(=O)n3ncnc3c3cc(Br)cnc32)cc1` [Example 185, 9-Bromo-6-(4-methoxybenzyl)pyrido[3,2-e][1,2,4]triazolo[1,5-c]pyrimidin-5(6H)-one] was 100 to 1000 nM; that for `COc1ccc(Cn2c(=O)n3ncnc3c3ncc(Br)cc32)cc1` [Example 186] was 1000 to 10000 nM; that for `COc1ccc(Cn2c(=O)n3ncnc3c3ccc(C(OC)OC)nc32)cc1` [Example 187] was 1000 to 10000 nM.

The test is the same for the next values; noted with them: negative log of half-maximal molar inhibitory concentration; 200 nM FAM-cAMP, Calmodulin, CaCl2.
With `COc1ccc(Cn2c(=O)n3ncnc3c3c4c(sc32)CN(CC2(C)COC2)CC4)cc1` [Example 111], the “PDE1B pIC50” value was greater than 7. Same read-out and setting: the result for `COc1ccc(Cn2c(=O)n3ncnc3c3c4c(sc32)CN(CCCSC)CC4)cc1` [Example 112] reads greater than 7.

As for `COc1ccc(Cn2c(=O)n3ncnc3c3c4c(sc32)CN(CC2CCOC2)CC4)cc1` (stereo not drawn) [Example 113], the “PDE1B pIC50” value is recorded as greater than 7.

Regarding `COc1ccc(Cn2c(=O)n3ncnc3c3c4c(sc32)CN(CC(C)(C)C)CC4)cc1` [Example 115], the “PDE1B pIC50” value is listed as greater than 7.

For `COc1ccc(Cn2c(=O)n3ncnc3c3c4c(sc32)CN(Cc2ncccn2)CC4)cc1` [Example 116], the “PDE1B pIC50” value was greater than 7.

As to `COc1ccc(Cn2c(=O)n3ncnc3c3c4c(sc32)CN(CC2CCCCO2)CC4)cc1` (stereo not drawn) [Example 117], the “PDE1B pIC50” value is listed as greater than 7. Still for that read-out and setting: the result for `COc1ccc(Cn2c(=O)n3ncnc3c3c4c(sc32)CN(CCCS(C)(=O)=O)CC4)cc1` [Example 118] reads greater than 7. Still for that read-out and setting: the result for `COc1ccc(Cn2c(=O)n3ncnc3c3c4c(sc32)CN(Cc2ccncn2)CC4)cc1` [Example 119] reads greater than 7; that for `COc1ccc(Cn2c(=O)n3ncnc3c3c4c(sc32)CN(Cc2ccccn2)CC4)cc1` [Example 120], greater than 7. Same read-out and setting: the value for `COc1ccc(Cn2c(=O)n3ncnc3c3c4c(sc32)CN(Cc2ccncc2)CC4)cc1` [Example 121] was greater than 7.

Take `COc1ccc(Cn2c(=O)n3ncnc3c3c4c(sc32)CN(Cc2nccn2C)CC4)cc1` [Example 122]: the “PDE1B pIC50” value is greater than 7. Same read-out and setting: the result for `COc1ccc(Cn2c(=O)n3ncnc3c3c4c(sc32)CN(Cc2scnc2C)CC4)cc1` [Example 123] reads greater than 7; that for `COc1ccc(Cn2c(=O)n3ncnc3c3c4c(sc32)CN(CC2COCCO2)CC4)cc1` (stereo not drawn) [Example 125], greater than 7; that for `COc1ccc(Cn2c(=O)n3ncnc3c3c4c(sc32)CN(CC2CCC(=O)O2)CC4)cc1` (stereo not drawn) [Example 126], greater than 7.

Take `COc1ccc(Cn2c(=O)n3ncnc3c3c4c(sc32)CN(Cc2ccc(F)cc2)CC4)cc1` [Example 127]: the “PDE1B pIC50” value is greater than 7. Same read-out and setting: the value for `COc1ccc(Cn2c(=O)n3ncnc3c3c4c(sc32)CN(Cc2ccccc2F)CC4)cc1` [Example 128] was greater than 7; that for `O=c1n(Cc2ccc(Cl)cc2F)c2sc3c(c2c2ncnn12)CCN(Cc1ccccn1)C3` [Example 130] was greater than 7; that for `Cn1ccnc1CN1CCc2c(sc3c2c2ncnn2c(=O)n3Cc2ccc(Cl)cc2F)C1` [Example 131] was greater than 7. Same read-out and setting: the result for `O=c1n(Cc2ccc(Cl)cc2F)c2sc3c(c2c2ncnn12)CCN(Cc1ncccn1)C3` [Example 132] reads greater than 7; that for `COc1ccc(Cn2c(=O)n3ncnc3c3c4c(sc32)CN(CC2CCCOC2)CC4)cc1` (stereo not drawn) [Example 134], greater than 7; that for `COc1ccc(Cn2c(=O)n3ncnc3c3c4c(sc32)CN(CC2CCCOC2)CC4(F)F)cc1` (stereo not drawn) [Example 136], greater than 7. With `COc1ccc(Cn2c(=O)n3ncnc3c3c4c(sc32)CN(Cc2ncccn2)CC4)c(F)c1` [Example 137], the “PDE1B pIC50” value is given as greater than 7. Same read-out and setting: the value for `COc1ccc(Cn2c(=O)n3ncnc3c3c4c(sc32)CN(Cc2nccn2C)CC4)c(F)c1` [Example 138] was greater than 7; that for `COc1ccc(Cn2c(=O)n3ncnc3c3c4c(sc32)CN(Cc2ccccn2)CC4)c(F)c1` [Example 139] was greater than 7; that for `COc1ccc(Cn2c(=O)n3ncnc3c3c4c(sc32)CN(CC2CCOC2)CC4)c(F)c1` (stereo not drawn) [Example 140] was greater than 7. Consider `COc1ccc(Cn2c(=O)n3ncnc3c3c4c(sc32)CN(CC2CCCOC2)CC4)c(F)c1` (stereo not drawn) [Example 142], for which the “PDE1B pIC50” value is given as greater than 7. Consider `COc1ccc(Cn2c(=O)n3ncnc3c3c4c(sc32)CN(CC2CCOC2)CCC4)cc1` (stereo not drawn) [Example 143], for which the “PDE1B pIC50” value is listed as greater than 7.

For `COc1ccc(Cn2c(=O)n3ncnc3c3c4c(sc32)CN(Cc2nccn2C)CCC4)cc1` [Example 144], the “PDE1B pIC50” value is given as greater than 7. Still for that read-out and setting: the result for `COc1ccc(Cn2c(=O)n3ncnc3c3c4c(sc32)CN(Cc2ncccn2)CCC4)cc1` [Example 145] reads greater than 7; that for `COc1ccc(Cn2c(=O)n3ncnc3c3c4c(sc32)CN(Cc2ccccn2)CCC4)cc1` [Example 146], greater than 7; that for `COc1ccc(Cn2c(=O)n3ncnc3c3c4c(sc32)CN(CC2CCOCC2)CCC4)cc1` [Example 147], greater than 7.

Consider `COc1ccc(Cn2c(=O)n3ncnc3c3c4c(sc32)N(CC2CCOCC2)CCC4)cc1` [Example 148], for which the “PDE1B pIC50” value was greater than 7. Same read-out and setting: the value for `COc1ccc(Cn2c(=O)n3ncnc3c3c4c(sc32)N(CC2CCCOC2)CCC4)cc1` (stereo not drawn) [Example 149] was greater than 7; that for `COc1ccc(Cn2c(=O)n3ncnc3c3c4c(sc32)N(CC2CCOC2)CCC4)cc1` (stereo not drawn) [Example 150] was greater than 7. Same read-out and setting: the value for `COc1ccc(Cn2c(=O)n3ncnc3c3c4c(sc32)CN(CC2CCOCC2)CC4(F)F)c(F)c1` [Example 156] was greater than 7; that for `O=C(c1cnccn1)N1CCc2c(sc3c2c2ncnn2c(=O)n3Cc2ccc(Cl)cc2)C1` [Example 157, 6-(4-Chlorobenzyl)-9-(pyrazine-2-carbonyl)-8,9,10,11-tetrahydropyrido[4′,3′:4,5]thieno[3,2-e][1,2,4]triazolo[1,5-c]pyrimidin-5(6H)-one] was greater than 7; that for `COc1ccc(Cn2c(=O)n3ncnc3c3c4c(sc32)CN(C(=O)C2CC2)CC4)cc1` [Example 159] was greater than 7. In the case of `COc1ccc(Cn2c(=O)n3ncnc3c3c4c(sc32)CN(S(C)(=O)=O)CC4)cc1` [Example 162], the “PDE1B pIC50” value was greater than 7. Still for that read-out and setting: the result for `O=C(C1CC1)N1CCc2c(sc3c2c2ncnn2c(=O)n3Cc2ccc(Cl)cc2F)C1` [Example 164] reads greater than 7.

As to `COc1ccc(Cn2c(=O)n3ncnc3c3c4c(sc32)CN(C(=O)C2CCOC2)CC4(F)F)cc1` (stereo not drawn) [Example 166], the “PDE1B pIC50” value is recorded as greater than 7. The same measure, in the same setting: the result for `COc1ccc(Cn2c(=O)n3ncnc3c3c4c(sc32)CN(C(=O)C2CCOC2)CC4)c(F)c1` (stereo not drawn) [Example 167] reads greater than 7. Still for that read-out and setting: the result for `COc1ccc(Cn2c(=O)n3ncnc3c3c4c(sc32)CN(C(=O)C2CC2)CC4)c(F)c1` [Example 168] reads greater than 7; that for `COc1ccc(Cn2c(=O)n3ncnc3c3c4c(sc32)CN(C(=O)[C@@H]2CCOC2)CC4)cc1` [Example 169], greater than 7.

Consider `COc1ccc(Cn2c(=O)n3ncnc3c3c4c(sc32)CN(C(=O)C2CCOC2)CC4)cc1` (stereo not drawn) [Example 170], for which the “PDE1B pIC50” value is given as greater than 7. Still for that read-out and setting: the result for `COc1ccc(Cn2c(=O)n3ncnc3c3c4c(sc32)N(C(=O)C2CC2)CCC4)cc1` [Example 174] reads greater than 7; that for `COc1ccc(Cn2c(=O)n3ncnc3c3c4c(sc32)N(C(=O)C2CCOC2)CCC4)cc1` (stereo not drawn) [Example 175], greater than 7; that for `COc1ccc(Cn2c(=O)n3ncnc3c3c4c(sc32)CN(c2ccccn2)CC4)cc1` [Example 179, 6-(4-Methoxybenzyl)-9-(pyridin-2-yl)-8,9,10,11-tetrahydropyrido[4′,3′:4,5]thieno[3,2-e][1,2,4]triazolo[1,5-c]pyrimidin-5(6H)-one], greater than 7.

Regarding `COc1ccc(Cn2c(=O)n3nccc3c3cc(CN4C[C@@H](C)O[C@@H](C)C4)sc32)cc1` [Example 184], the “PDE1B pIC50” value is greater than 7.

(Values after patent US10105367B2, “Therapeutic thiophene-, furan-, and pyridine-fused azolopyrimidin-5-(6h)-ones” (Dart Neuroscience (Cayman) Ltd., priority 2012, dated 2018).)
